Results taken from US8729074B2, “Inhibitors of PI3 kinase” (Amgen Inc., priority 2009, dated 2014).

Key:
mTOR = mTOR (Homo sapiens (Human), UniProt P42345); assay: In vitro mTOR Lanthascreen assay; format: biochemical; settings: average if run more than once
Source text: The Invitrogen (Carlsbad, Calif.) mammalian target of rapamycin (mTOR) Lanthascreen assay can be used to quantitate mTOR kinase activity in an in vitro setting. Active mTOR phosphorylates eukaryotic translation initiation factor 4E binding protein 1 (4E-BP1) on residue threonine 46. This phosphorylation event can be detected with a phospho-specific terbium (Tb) labeled Ab, in turn bringing the Tb label in close proximity to the GFP tagged 4E-BP 1 and allowing for time-resolved fluorescence resonance energy transfer (TR-FRET), which correlates 4E-BP1 phosphorylation levels with mTOR kinase activity.
Enzyme reaction buffer can be prepared in deionized water containing 50 mM HEPES (pH 7.5), 0.01% Polysorbate 20, 1 mM EGTA, and 10 mM MnCl2.
Dilutions of the compound to be tested can be prepared in 96-well polypropylene plates (Fisher Scientific, Waltham, Mass.). One row represents a 10-point dose of compound diluted 1:3 in enzyme reaction buffer and 20% dimethyl sulfoxide (DMSO). The top concentration for all compounds is 36 μM. Wells 6 and 12 can serve as the no compound (DMSO only) and high compound controls.
An mTOR substrate solution can prepared in enzyme reaction buffer containing 1600 nM green fluorescent protein tagged eukaryotic translation initiation factor 4E binding protein 1 (GFP-4E-BP1) (Invitrogen, Carlsbad, Calif.) and 28 uM adenosine triphosphate (ATP) (Calbiochem, Gibbstown, N.J.).
mTOR enzyme (Invitrogen, Carlsbad, Calif.) can be diluted in enzyme reaction buffer to a working concentration of 100 ng/mL.
The enzyme assay can be run in 384 well low volume assay plates (Corning, Corning, N.Y.). 2.5 uL of substrate solution containing GFP-4E-BP1 and ATP can be added to appropriate wells in the assay plate followed by 2.5 μL of compound dilutions. 5 μL of appropriately diluted mTOR enzyme can be added and the reaction allowed to proceed for 1 hour at room temperature. Final reagent concentrations in the enzyme assay are 50 ng/mL mTOR, 400 nM GFP-4E-BP1, and 7 μM ATP.
The enzyme assay can be terminated upon the addition of 10 μL of 20 mM EDTA and 4 nM Tb-labeled anti-phospho-4E-BP1 [T46] antibody (Invitrogen, Carlsbad, Calif.). The assay plate can then be incubated at room temperature for 1 hour and results read on a Tecan Safire II plate reader (Tecan, Männedorf, Switzerland).

PI3Kα = PI3Kα (Homo sapiens (Human), UniProt P42336); assay: In vitro PI3K AlphaScreen assay; format: biochemical; settings: average if run more than once
Description: In Vitro PI3K AlphaScreen® Assay
The PI3K AlphaScreen® assay (PerkinElmer, Waltham, Mass.) measures the activity of a panel of four phosphoinositide 3-kinases: PI3Kα, PI3Kβ, PI3Kγ, and PI3Kδ. Each of these enzymes phosphorylates the 3′-hydroxyl group on phosphatidylinositiol (4,5)-bisphosphate (PIP2) to produce phosphatidylinositol (3,4,5)-trisphosphate (PIP3). This phosphorylation activity is measured using a GST-tagged PIP3 binding protein (Echelon Biosciences, Salt Lake City, Utah), an anti-GST-tagged Acceptor bead, and streptavidin-Donor bead. […] In the absence of this interaction, proximity of the Donor and Acceptor beads is decreased, producing a loss of luminescent signal which is inversely proportional to PI3K activity.
The enzyme reaction buffer is made using sterile water (Baxter, Deerfield, Ill.) and 50 mM Tris HCl pH 7, 14 mM MgCl2, 2 mM sodium cholate, and 100 mM NaCl. 2 mM DTT is added fresh the day of the experiment. The AlphaScreen® reaction buffer is made using sterile water and 10 mM Tris HCl pH 7.5, 150 mM NaCl, 0.10% Tween 20, and 30 mM EDTA. 1 mM DTT is added fresh the day of the experiment.
The source plates for this assay are 384-well Greiner clear polypropylene plates containing test compounds at 5 mM and diluted 1:2 over 22 points. Columns 23 and 24 contain only DMSO as these are designated for positive and negative controls. Source plates are replicated into 384-well Optiplates (PerkinElmer, Waltham, Mass.), 0.5 μL/well, to make assay-ready plates.
The different PI3K isoforms are each diluted in enzyme reaction buffer to 2× working solutions. […] Two different 2× substrate solutions are made in enzyme reaction buffer. In one solution, PI(4,5)P2 (Echelon Biosciences, Salt Lake City, Utah) is diluted to 10 μM and ATP is diluted to 20 μM. This solution is used in the assays testing PI3Kα and PI3Kβ. In a second solution, PI(4,5)P2 is diluted to 10 μM and ATP is diluted to 8 μM. This solution is used in the assays testing PI3Kγ and PI3Kδ.
The AlphaScreen® reaction solutions are made using beads from the anti-GST AlphaScreen® kit (PerkinElmer, Waltham, Mass.). Two solutions are made in Alphascreen reaction buffer to 4× working concentrations. In one solution, biotinylated-IP4 (Echelon Biosciences, Salt Lake City, Utah) is diluted to 40 nM and streptavadin-Donor Beads are diluted to 80 μg/mL. In the second solution, PIP3-binding protein (Echelon Biosciences, Salt Lake City, Utah) is diluted to 40 nM and anti-GST-Acceptor Beads are diluted to 80 μg/mL. 10 μL/well of enzyme reaction buffer is added to Column 24 of the assay ready plates in place of enzyme. This is done for plates in the PI3Kα, β, and δ assays.
Using a 384-well dispensing Multidrop (Titertek, Huntsville, Ala.), 10 μL/well of 2× enzyme (PI3Kα, β, δ) is added to Columns 1-23 of the appropriate assay ready plates (for PI3Kγ 10 μL is added to Columns 1-24). 10 μL/well of the appropriate substrate solution (the solution with 20 μM ATP for PI3Kα and β assays, and the solution with […] for PI3Kγ and δ assays) is then added to Columns 1-24 of the plates. Plates are then incubated at room temperature for 20 minutes.
In the dark, 10 μL/well of the Donor Bead solution is added to Columns 1-24 of the plates to quench the enzyme reaction. The plates are incubated at room temperature for 30 minutes. Still in the dark, 10 μL/well of the Acceptor Bead solution is also added to Columns 1-24 of the plates. The plates are then incubated in the dark for 1.5 hours. The plates are read on an Envision Multilabel Plate Reader (PerkinElmer, Waltham, Mass.) with a 680 nm excitation filter and a 520-620 nm emission filter.
Activity data for the compounds tested in the assay is provided in Table 1 under the column heading PI3Kα AlphaScreen®.

Sequence of mTOR (P42345 1360-2549): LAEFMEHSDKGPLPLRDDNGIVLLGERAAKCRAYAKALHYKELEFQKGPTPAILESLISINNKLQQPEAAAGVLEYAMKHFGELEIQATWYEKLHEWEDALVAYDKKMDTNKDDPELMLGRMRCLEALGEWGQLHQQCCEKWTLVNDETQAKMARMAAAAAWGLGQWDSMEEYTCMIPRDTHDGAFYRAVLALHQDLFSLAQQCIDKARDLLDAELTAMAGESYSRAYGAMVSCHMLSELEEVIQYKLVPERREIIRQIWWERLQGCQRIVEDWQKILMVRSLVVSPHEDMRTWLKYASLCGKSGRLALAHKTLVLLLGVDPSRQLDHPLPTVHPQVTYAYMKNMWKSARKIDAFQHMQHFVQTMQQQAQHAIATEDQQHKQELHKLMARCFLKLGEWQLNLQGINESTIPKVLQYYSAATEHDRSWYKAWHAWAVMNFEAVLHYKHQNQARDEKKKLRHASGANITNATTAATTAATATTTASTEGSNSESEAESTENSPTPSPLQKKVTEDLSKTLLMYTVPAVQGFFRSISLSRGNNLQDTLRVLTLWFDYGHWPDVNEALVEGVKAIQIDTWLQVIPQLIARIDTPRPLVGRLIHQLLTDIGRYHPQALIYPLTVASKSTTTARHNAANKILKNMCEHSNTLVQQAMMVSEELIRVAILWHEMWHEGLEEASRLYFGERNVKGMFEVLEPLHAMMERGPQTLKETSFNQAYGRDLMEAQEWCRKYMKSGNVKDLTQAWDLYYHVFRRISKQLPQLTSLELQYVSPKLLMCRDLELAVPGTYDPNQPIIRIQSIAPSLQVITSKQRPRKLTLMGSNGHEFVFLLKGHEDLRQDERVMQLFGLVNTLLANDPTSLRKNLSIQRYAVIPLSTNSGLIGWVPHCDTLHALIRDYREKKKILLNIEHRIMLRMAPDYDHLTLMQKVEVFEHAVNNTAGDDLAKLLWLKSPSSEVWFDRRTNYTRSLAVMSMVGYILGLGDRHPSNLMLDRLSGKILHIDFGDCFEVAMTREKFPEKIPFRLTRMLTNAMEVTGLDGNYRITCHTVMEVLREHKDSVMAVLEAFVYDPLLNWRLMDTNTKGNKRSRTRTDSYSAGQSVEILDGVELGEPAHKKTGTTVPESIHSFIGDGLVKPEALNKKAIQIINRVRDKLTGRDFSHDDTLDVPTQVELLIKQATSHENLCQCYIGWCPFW
Sequence of PI3Kα (P42336 whole entry): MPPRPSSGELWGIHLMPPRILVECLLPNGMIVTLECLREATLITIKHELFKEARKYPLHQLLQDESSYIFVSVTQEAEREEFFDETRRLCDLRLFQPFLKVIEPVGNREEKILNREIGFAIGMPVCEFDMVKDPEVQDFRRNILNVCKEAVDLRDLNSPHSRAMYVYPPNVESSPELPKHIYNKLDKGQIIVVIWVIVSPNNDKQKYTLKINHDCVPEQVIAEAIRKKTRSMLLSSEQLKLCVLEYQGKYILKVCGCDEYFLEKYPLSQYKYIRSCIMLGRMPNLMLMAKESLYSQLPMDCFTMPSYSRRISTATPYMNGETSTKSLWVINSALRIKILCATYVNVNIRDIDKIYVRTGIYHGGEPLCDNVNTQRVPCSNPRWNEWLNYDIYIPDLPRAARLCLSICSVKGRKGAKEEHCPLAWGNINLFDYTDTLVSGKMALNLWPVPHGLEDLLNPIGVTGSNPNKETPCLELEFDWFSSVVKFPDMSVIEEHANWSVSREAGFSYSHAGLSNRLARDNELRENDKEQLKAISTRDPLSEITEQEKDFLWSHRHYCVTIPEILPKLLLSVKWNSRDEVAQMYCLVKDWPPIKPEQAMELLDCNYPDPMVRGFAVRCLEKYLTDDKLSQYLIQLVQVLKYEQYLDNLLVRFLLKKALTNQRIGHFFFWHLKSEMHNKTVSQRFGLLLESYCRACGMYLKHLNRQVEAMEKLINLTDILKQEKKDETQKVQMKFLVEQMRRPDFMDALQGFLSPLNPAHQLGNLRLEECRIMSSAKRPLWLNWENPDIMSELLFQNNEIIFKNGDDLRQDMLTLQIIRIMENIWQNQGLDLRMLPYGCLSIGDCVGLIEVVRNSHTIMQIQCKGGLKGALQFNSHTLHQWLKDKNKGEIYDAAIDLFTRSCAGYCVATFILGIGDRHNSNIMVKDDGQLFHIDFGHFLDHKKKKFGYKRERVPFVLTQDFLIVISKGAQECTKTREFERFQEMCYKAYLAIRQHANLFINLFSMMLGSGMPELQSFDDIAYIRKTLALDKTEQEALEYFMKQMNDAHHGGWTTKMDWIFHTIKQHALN
Sequence of PI3Kα (P27986 whole entry partner): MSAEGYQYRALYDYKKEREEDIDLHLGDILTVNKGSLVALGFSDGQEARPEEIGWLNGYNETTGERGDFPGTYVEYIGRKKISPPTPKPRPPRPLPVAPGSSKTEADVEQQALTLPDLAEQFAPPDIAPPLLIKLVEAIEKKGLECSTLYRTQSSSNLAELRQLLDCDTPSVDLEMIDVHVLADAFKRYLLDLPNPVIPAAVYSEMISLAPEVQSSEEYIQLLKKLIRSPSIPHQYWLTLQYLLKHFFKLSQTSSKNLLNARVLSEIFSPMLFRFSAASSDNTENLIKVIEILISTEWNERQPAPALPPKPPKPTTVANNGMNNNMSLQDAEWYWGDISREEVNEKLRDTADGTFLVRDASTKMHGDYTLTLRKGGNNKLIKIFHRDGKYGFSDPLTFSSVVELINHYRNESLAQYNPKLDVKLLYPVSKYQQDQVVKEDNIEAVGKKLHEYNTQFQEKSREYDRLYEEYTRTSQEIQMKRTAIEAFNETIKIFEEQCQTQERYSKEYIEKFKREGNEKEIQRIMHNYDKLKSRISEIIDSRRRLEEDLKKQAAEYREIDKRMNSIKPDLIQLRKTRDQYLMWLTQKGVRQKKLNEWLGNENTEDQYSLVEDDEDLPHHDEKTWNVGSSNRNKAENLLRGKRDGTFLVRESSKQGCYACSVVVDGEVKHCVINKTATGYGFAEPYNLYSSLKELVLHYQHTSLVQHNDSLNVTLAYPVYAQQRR

O=S(=O)(Nc1cc(-c2cnc3ccccn23)cnc1Cl)c1ccc(F)cc1 [Example 3, N-(2-Chloro-5-imidazo[1,2-a]pyridin-3-yl-3-pyridinyl)-4-fluorobenzenesulfonamide]
IC50 (mTOR): 155 nM
Ki (PI3Kα): 28 nM

Cc1ccn2c(-c3cnc(Cl)c(NS(=O)(=O)c4ccc(F)cc4)c3)cnc2c1 [Example 4, N-(2-Chloro-5-(7-methylimidazo[1,2-a]pyridin-3-yl)-3-pyridinyl)-4-fluorobenzenesulfonamide]
Ki (PI3Kα): 19 nM

Cc1nc2ccc(Br)cn2c1-c1cnc(Cl)c(NS(=O)(=O)c2ccc(F)cc2)c1 [Example 5, N-(5-(6-Bromo-2-methylimidazo[1,2-a]pyridin-3-yl)-2-chloro-3-pyridinyl)-4-fluorobenzenesulfonamide]
IC50 (mTOR): 848 nM
Ki (PI3Kα): 20 nM

O=S(=O)(Nc1cc(-c2cnc3ccc(Br)cn23)cnc1Cl)c1ccc(F)cc1 [Example 6, N-(5-(6-Bromoimidazo[1,2-a]pyridin-3-yl)-2-chloro-3-pyridinyl)-4-fluorobenzenesulfonamide]
IC50 (mTOR): 39 nM
Ki (PI3Kα): 6 nM

O=S(=O)(Nc1cc(-c2cnc3ccc(-c4ccncc4)cn23)cnc1Cl)c1ccc(F)cc1 [Example 7, N-(2-Chloro-5-(6-(4-pyridinyl)imidazo[1,2-a]pyridin-3-yl)-3-pyridinyl)-4-fluorobenzenesulfonamide]
IC50 (mTOR): 36 nM
Ki (PI3Kα): 2 nM

O=S(=O)(Nc1cc(-c2cnc3ccc(-c4cccnc4)cn23)cnc1Cl)c1ccc(F)cc1 [Example 8, N-(2-Chloro-5-(6-(3-pyridinyl)imidazo[1,2-a]pyridin-3-yl)-3-pyridinyl)-4-fluorobenzenesulfonamide]
IC50 (mTOR): 32 nM
Ki (PI3Kα): 1 nM

O=S(=O)(Nc1cc(-c2cnc3ccc(N4CCOCC4)cn23)cnc1Cl)c1ccc(F)cc1 [Example 9, N-(2-Chloro-5-(6-(4-morpholinyl)imidazo[1,2-a]pyridin-3-yl)-3-pyridinyl)-4-fluorobenzenesulfonamide]
IC50 (mTOR): 364 nM
Ki (PI3Kα): 4 nM

COc1cc(-c2cnc3ccccn23)cnc1OC [Example 10, 3-(5,6-Dimethoxy-3-pyridinyl)imidazo[1,2-a]pyridine]
IC50 (mTOR): > 50000 nM
Ki (PI3Kα): > 1500 nM

COc1cc(-c2cnc3ccc(Br)cn23)cnc1OC [Example 11, 6-Bromo-3-(5,6-dimethoxy-3-pyridinyl)imidazo[1,2-a]pyridine]
IC50 (mTOR): 2170 nM
Ki (PI3Kα): 779 nM

COc1cc(-c2cnc3ccc(-c4ccncc4)cn23)cnc1OC [Example 12, 3-(5,6-Dimethoxy-3-pyridinyl)-6-(4-pyridinyl)imidazo[1,2-a]pyridine]
IC50 (mTOR): 3750 nM
Ki (PI3Kα): 626 nM

COc1cc(-c2cnc3ccc(N4CCOC4=O)cn23)cnc1OC [Example 13, 3-(3-(5,6-Dimethoxy-3-pyridinyl)imidazo[1,2-a]pyridin-6-yl)-1,3-oxazolidin-2-one]
IC50 (mTOR): 9660 nM
Ki (PI3Kα): > 1500 nM

COc1cc(-c2cnc3ccc(N4CCOCC4)cn23)cnc1OC [Example 16, 3-(5,6-Dimethoxy-3-pyridinyl)-6-(4-morpholinyl)imidazo[1,2-a]pyridine]
IC50 (mTOR): 4520 nM
Ki (PI3Kα): 1080 nM

CN(C)S(=O)(=O)Nc1cc(-c2cnc3ccc(-c4ccncc4)cn23)cnc1Cl [Example 18, N-(2-Chloro-5-(6-(pyridin-4-yl)imidazo[1,2-a]pyridin-3-yl)pyridin-3-yl)dimethylaminosulfonamide]
IC50 (mTOR): 15 nM
Ki (PI3Kα): 1 nM

CN(C)S(=O)(=O)Nc1cc(-c2cnc3ccc(-c4ccnc(C(F)(F)F)c4)cn23)cnc1Cl [Example 19, N-(2-Chloro-5-(6-(2-(trifluoromethyl)pyridin-4-yl)imidazo[1,2-a]pyridin-3-yl)pyridin-3-yl)dimethylaminosulfonamid]
IC50 (mTOR): 15 nM
Ki (PI3Kα): 1 nM

CS(=O)(=O)Nc1cc(-c2cnc3cc(-c4cccnc4)ccn23)cnc1Cl [Example 20, N-(2-Chloro-5-(7-(pyridin-3-yl)imidazo[1,2-a]pyridin-3-yl)pyridin-3-yl)methanesulfonamide]
IC50 (mTOR): 32 nM
Ki (PI3Kα): 5 nM

CN(C)S(=O)(=O)Nc1cc(-c2cnc3cc(-c4ccncc4)ccn23)cnc1Cl [Example 21, N′-(2-Chloro-5-(7-(4-pyridinyl)imidazo[1,2-a]pyridin-3-yl)-3-pyridinyl)-N,N-dimethylsulfamide]
IC50 (mTOR): 258 nM
Ki (PI3Kα): 15 nM

CN(C)S(=O)(=O)Nc1cc(-c2cnc3cc(-c4cccnc4)ccn23)cnc1Cl [Example 22, N′-(2-Chloro-5-(7-(3-pyridinyl)imidazo[1,2-a]pyridin-3-yl)-3-pyridinyl)-N,N-dimethylsulfamide]
IC50 (mTOR): 157 nM
Ki (PI3Kα): 21 nM

Cc1cc2ncc(-c3cnc(Cl)c(NS(=O)(=O)N(C)C)c3)n2cc1-c1ccncc1 [Example 23, N′-(2-Chloro-5-(7-methyl-6-(4-pyridinyl)imidazo[1,2-a]pyridin-3-yl)-3-pyridinyl)-N,N-dimethylsulfamide]
IC50 (mTOR): 18 nM
Ki (PI3Kα): 4 nM

O=S(=O)(Nc1cc(-c2cnc3ccc(Cl)nn23)cnc1Cl)c1ccc(F)cc1 [Example 25, N-(2-Chloro-5-(6-chloroimidazo[1,2-b]pyridazin-3-yl)pyridin-3-yl)-4-fluorobenzenesulfonamide]
IC50 (mTOR): 102 nM
Ki (PI3Kα): 22 nM
